{"source": "paper PMC7055011", "about": "(Bioorganic & medicinal chemistry, 2019)", "key": {"[1]": {"assay": "Human liver microsomal stability", "assay_type": "in vitro ADME", "settings": "for CLint scaled at 2 h, 1 µM: human, microsomes, pH 7.4"}, "[2]": {"test_system": "apelin receptor", "settings": "cited from earlier work"}, "[3]": {"test_system": "NTR2", "settings": "compared with hit 8; cited from earlier work"}, "[4]": {"molecular_target": "T1, human angiotensin II receptor, type I (Homo sapiens, UniProt P30556)", "T1 sequence (P30556 1-359)": "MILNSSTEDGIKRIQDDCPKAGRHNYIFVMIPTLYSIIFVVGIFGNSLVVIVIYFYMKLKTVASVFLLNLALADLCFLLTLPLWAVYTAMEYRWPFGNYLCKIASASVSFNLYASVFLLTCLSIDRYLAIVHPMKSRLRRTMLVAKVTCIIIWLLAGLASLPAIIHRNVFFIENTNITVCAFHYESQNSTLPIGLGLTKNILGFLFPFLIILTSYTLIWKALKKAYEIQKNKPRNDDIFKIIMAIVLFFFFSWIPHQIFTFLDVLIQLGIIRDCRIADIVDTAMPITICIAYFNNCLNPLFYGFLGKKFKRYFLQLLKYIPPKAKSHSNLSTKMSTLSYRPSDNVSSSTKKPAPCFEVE", "settings": "cited from earlier work"}, "[5]": {"molecular_target": "T2, hAPJ (Homo sapiens, UniProt P35414)", "T2 sequence (P35414 1-380)": "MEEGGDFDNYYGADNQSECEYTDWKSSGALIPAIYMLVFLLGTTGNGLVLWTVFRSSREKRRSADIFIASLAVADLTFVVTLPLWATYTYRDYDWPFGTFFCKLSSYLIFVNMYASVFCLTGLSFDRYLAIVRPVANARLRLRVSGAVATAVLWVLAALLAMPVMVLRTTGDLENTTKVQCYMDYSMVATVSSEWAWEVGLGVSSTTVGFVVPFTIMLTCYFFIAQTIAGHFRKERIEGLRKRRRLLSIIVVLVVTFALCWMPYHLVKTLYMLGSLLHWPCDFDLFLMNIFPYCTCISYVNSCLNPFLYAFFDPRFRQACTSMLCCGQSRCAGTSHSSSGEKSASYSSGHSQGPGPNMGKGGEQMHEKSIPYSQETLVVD", "assay": "Lance cAMP accumulation assay", "assay_type": "cell-based"}, "[6]": {"test_system": "5-HT1A, α2C adrenergic, mu-opioid, benzylpiperazine receptors and norepinephrine transporter", "settings": "cited from earlier work"}, "[7]": {"settings": "cited from earlier work"}, "[8]": {"settings": "cited from earlier work", "remark": "listed apart in the source"}}, "data": [{"smiles": "CCOc1ccc2c(C)cc(=O)oc2c1", "note": "[7-ethoxy-4-methylcoumarin]", "values": [{"measurement": "CLint scaled at 2 h, 1 µM", "setting": "[1]", "result": 325, "unit": "mL/min/kg"}]}, {"smiles": "CCC(CC)n1c(Cc2cccs2)nc2cc(C(=O)N[C@H](CC(=O)O)CC(C)C)ccc21", "note": "[CMF-019, (S)-5-Methyl-3-{1-(pentan-3-yl)-2-(thiophen-2-ylmethyl)-1H-benzo[d]imidazole5-carboxamido}hexanoic Acid]", "values": [{"measurement": "Bias towards Gαi signaling over receptor internalization", "setting": "[2]", "result": "~ 6000 fold"}, {"measurement": "Bias towards Gαi signaling over β-arrestin recruitment", "setting": "[2]", "result": "~ 400 fold"}]}, {"smiles": "COc1cccc(OC)c1-c1cc(C(=O)N[C@@H](CCC2CCCCC2)CC(=O)O)nn1-c1ccc(F)cc1", "note": "[Compound 9, (S)-5-cyclohexyl-3-(5-(2,6-dimethoxyphenyl)-1-(4-fluorophenyl)-1H-pyrazole-3-carboxamido)pentanoic acid]", "values": [{"measurement": "Stability in human liver microsomes", "setting": "[1]", "result": "excellent stability"}, {"measurement": "CLint scaled at 2 h, 1 µM", "setting": "[1]", "result": 5, "unit": "mL/min/kg"}, {"measurement": "Off-target NTR2 activity", "setting": "[3]", "result": "significantly reduced"}, {"measurement": "Activity at AT1 receptor, previously reported", "setting": "[4]", "result": "did not activate or inhibit"}]}, {"smiles": "COc1cccc(OC)c1-c1cc(C(=O)N[C@@H](CCC2CCCCC2)CC(=O)O)nn1CC1CCCCC1", "note": "[Compound 15, (S)-5-Cyclohexyl-3-(1-(cyclohexylmethyl)-5-(2,6-dimethoxyphenyl)-1H-pyrazole-3-carboxamido)pentanoic acid]", "values": [{"measurement": "Activity in cAMP assay", "setting": "[5]", "result": "completely inactive"}]}, {"smiles": "COc1cccc(OC)c1-c1cc(C(=O)N[C@@H](CCC2CCCCC2)CC(=O)O)nn1C1CCCCCCC1", "note": "[Compound 16, (S)-5-Cyclohexyl-3-(1-cyclooctyl-5-(2,6-dimethoxyphenyl)-1H-pyrazole-3-carboxamido)pentanoic acid]", "values": [{"measurement": "Activity in cAMP assay", "setting": "[5]", "result": "completely inactive"}]}, {"smiles": "CC1=CC(=O)C(C2CCCCC2)=C/C1=N\\OS(=O)(=O)c1ccccc1", "note": "[ML233, (E)-2-cyclohexyl-5-methyl-4-(phenylsulfonyloxyimino)cyclohexa-2,5-dienone]", "values": [{"measurement": "Off-target binding", "setting": "[6]", "result": "significant off-target binding"}, {"measurement": "Solubility", "setting": "[7]", "result": "poor solubility"}, {"measurement": "Stability in microsomal fractions", "setting": "[8]", "result": "poor"}]}]}
